Source: patent US20240228463A1, “SODIUM CHANNEL INHIBITORS AND METHODS OF DESIGNING SAME” (Genentech, Inc., priority 2021, published 2024)

Target: T1, hNaV1.7 (Homo sapiens, UniProt Q15858)
T1 construct: expressed in transfected cells
Assay: Patch voltage clamp electrophysiology (EP), Syncropatch 384PE, Nav1.7 in CHO cells;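 also: Nav1.7 stably expressed from cDNA in CHO cells, holding potential of −50 mV kept for the entire experiment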
Type: cell-based
Conditions: holding potential −50 mV, inhibition based on 7.5 min compound incubation, read-out: hNaV1.7 EP_SP

T1 sequence (Q15858 1-1977 isoform Q15858-3): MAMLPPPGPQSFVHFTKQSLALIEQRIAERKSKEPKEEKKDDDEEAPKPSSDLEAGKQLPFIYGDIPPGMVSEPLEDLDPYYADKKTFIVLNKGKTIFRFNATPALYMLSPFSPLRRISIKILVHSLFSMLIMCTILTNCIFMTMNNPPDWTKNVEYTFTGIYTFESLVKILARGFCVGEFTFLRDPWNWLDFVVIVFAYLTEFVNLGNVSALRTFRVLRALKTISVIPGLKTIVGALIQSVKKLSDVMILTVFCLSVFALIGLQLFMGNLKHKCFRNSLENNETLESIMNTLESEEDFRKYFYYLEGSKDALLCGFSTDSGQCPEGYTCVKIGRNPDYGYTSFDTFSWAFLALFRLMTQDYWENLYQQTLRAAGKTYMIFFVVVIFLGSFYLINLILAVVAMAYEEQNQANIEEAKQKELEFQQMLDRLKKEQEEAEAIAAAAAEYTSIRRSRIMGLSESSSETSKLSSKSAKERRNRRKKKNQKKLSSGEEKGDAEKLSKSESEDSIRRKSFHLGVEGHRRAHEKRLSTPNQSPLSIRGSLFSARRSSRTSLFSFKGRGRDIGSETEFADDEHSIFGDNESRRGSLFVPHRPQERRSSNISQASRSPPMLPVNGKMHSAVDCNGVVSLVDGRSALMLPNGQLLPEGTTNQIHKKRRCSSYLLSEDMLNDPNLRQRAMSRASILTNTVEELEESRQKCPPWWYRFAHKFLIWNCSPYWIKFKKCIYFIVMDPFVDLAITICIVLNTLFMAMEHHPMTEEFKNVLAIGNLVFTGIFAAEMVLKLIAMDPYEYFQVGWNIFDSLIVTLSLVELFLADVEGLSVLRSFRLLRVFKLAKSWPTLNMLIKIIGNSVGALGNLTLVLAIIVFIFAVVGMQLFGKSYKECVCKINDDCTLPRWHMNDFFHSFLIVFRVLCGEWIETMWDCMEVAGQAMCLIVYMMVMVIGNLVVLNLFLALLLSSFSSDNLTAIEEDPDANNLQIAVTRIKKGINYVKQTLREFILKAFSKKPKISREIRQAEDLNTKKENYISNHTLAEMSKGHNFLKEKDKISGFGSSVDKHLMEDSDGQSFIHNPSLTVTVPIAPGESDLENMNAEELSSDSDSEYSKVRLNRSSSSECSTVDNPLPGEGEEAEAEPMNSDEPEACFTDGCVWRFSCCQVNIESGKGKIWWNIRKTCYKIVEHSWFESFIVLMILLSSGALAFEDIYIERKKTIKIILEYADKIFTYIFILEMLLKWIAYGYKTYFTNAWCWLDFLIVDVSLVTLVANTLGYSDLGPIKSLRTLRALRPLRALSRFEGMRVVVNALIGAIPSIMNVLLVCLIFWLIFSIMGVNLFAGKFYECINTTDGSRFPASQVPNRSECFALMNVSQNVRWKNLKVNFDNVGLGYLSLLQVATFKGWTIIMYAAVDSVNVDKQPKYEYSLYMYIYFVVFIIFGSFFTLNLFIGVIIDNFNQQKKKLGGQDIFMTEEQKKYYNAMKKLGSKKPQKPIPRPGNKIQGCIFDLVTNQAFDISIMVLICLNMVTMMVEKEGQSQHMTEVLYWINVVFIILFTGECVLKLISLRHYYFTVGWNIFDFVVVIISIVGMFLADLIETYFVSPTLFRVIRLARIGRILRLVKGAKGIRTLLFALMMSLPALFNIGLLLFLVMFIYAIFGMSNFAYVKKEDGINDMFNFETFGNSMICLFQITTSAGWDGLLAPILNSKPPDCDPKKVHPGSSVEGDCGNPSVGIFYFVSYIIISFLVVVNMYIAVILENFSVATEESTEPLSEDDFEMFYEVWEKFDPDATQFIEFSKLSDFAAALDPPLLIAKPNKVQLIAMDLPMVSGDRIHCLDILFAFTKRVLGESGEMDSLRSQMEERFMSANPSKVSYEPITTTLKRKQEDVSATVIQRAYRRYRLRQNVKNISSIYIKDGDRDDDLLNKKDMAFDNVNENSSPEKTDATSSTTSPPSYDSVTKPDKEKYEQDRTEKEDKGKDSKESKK

| Structure (SMILES) | IC50 [nM] |
| --- | --- |
| Cc1ccc(COc2ccc(S(=O)(=O)NC(=O)c3cc(Cl)c(OCC4CCCC4)cc3F)cc2)cc1 [Example 313, 5-chloro-4-(cyclopentylmethoxy)-2-fluoro-N-((4-((4-methylbenzyl)oxy)phenyl)sulfonyl)benzamide] | 140 |
| NCCCOc1ccc(S(=O)(=O)NC(=O)c2cc(Cl)c(OCC3CCCC3)cc2F)cc1 [Example 314, N-((4-(3-aminopropoxy)phenyl)sulfonyl)-5-chloro-4-(cyclopentylmethoxy)-2-fluorobenzamide] | 310 |
| Cn1nccc1COc1ccc(S(=O)(=O)NC(=O)c2cc(Cl)c(OCC3CCCC3)cc2F)cc1 [Example 315, 5-chloro-4-(cyclopentylmethoxy)-2-fluoro-N-((4-((1-methyl-1H-pyrazol-5-yl)methoxy)phenyl)sulfonyl)benzamide] | 47 |
| Cn1cncc1COc1ccc(S(=O)(=O)NC(=O)c2cc(Cl)c(OCC3CCCC3)cc2F)cc1 [Example 316, 5-chloro-4-(cyclopentylmethoxy)-2-fluoro-N-((4-((1-methyl-1H-imidazol-5-yl)methoxy)phenyl)sulfonyl)benzamide] | 28 |
| O=C(NS(=O)(=O)c1ccc(OCc2ccc(F)cc2F)cc1)c1cc(Cl)c(OCC2CCCC2)cc1F [Example 317, 5-chloro-4-(cyclopentylmethoxy)-N-((4-((2,4-difluorobenzyl)oxy)phenyl)sulfonyl)-2-fluorobenzamide] | 250 |
| COc1ccccc1COc1ccc(S(=O)(=O)NC(=O)c2cc(Cl)c(OCC3CCCC3)cc2F)cc1 [Example 318, 5-chloro-4-(cyclopentylmethoxy)-2-fluoro-N-((4-((2-methoxybenzyl)oxy)phenyl)sulfonyl)benzamide] | 190 |
| O=C(NS(=O)(=O)c1ccc(OCc2ccc(F)cc2)cc1)c1cc(Cl)c(OCC2CCCC2)cc1F [Example 319, 5-chloro-4-(cyclopentylmethoxy)-2-fluoro-N-((4-((4-fluorobenzyl)oxy)phenyl)sulfonyl)benzamide] | 110 |
| O=C(NS(=O)(=O)N1CCC2CCNCC2C1)c1cc(Cl)c(OCC2CCCC2)cc1F (stereo not drawn) [Example 321, 5-chloro-4-(cyclopentylmethoxy)-2-fluoro-N-((octahydro-2,7-naphthyridin-2(1H)-yl)sulfonyl)benzamide] | 210 |
| O=C(NS(=O)(=O)C1CCNC1)c1cc(Cl)c(OCC2CCCC2)cc1F (stereo not drawn) [Example 322, 5-chloro-4-(cyclopentylmethoxy)-2-fluoro-N-(pyrrolidin-3-ylsulfonyl)-benzamide] | 510 |
| CN1CCC(S(=O)(=O)NC(=O)c2cc(Cl)c(OCC3CCCC3)cc2F)C1 (stereo not drawn) [Example 323, 5-chloro-4-(cyclopentylmethoxy)-2-fluoro-N-((1-methylpyrrolidin-3-yl)sulfonyl)benzamide] | 470 |
| O=C(NS(=O)(=O)C1CCNCC1)c1cc(Cl)c(OCC2CCCC2)cc1F [Example 324, 5-chloro-4-(cyclopentylmethoxy)-2-fluoro-N-(piperidin-4-ylsulfonyl)-benzamide] | 790 |
| O=C(NS(=O)(=O)c1ccc(OC2CCNC2)cc1)c1cc(Cl)c(OCC2CCCC2)cc1F (stereo not drawn) [Example 325, 5-chloro-4-(cyclopentylmethoxy)-2-fluoro-N-((4-(pyrrolidin-3-yloxy)phenyl)sulfonyl)benzamide] | 240 |
| CC(C)(C)OC(=O)C1CC2C(C1)C2NS(=O)(=O)NC(=O)c1cc(Cl)c(OCC2CCCC2)cc1F (stereo not drawn) [Example 327, tert-butyl 6-((N-(5-chloro-4-(cyclopentylmethoxy)-2-fluorobenzoyl)-sulfamoyl)amino)bicyclo[3.1.0]hexane-3-carboxylate] | 920 |
| O=C(NS(=O)(=O)C1CC1)c1cc(Cl)c(OCC2CCCC2)cc1F [Example 328, 5-chloro-4-(cyclopentylmethoxy)-N-(cyclopropylsulfonyl)-2-fluorobenzamide] | 10 |
| CN(C)C1CCN(S(=O)(=O)NC(=O)c2cc(Cl)c(OCC3CCCC3)cc2F)CC1 [Example 329, 5-chloro-4-(cyclopentylmethoxy)-N-((4-(dimethylamino)piperidin-1-yl)sulfonyl)-2-fluorobenzamide] | 1000 |
